# Assay results from PMC11069587, “An Elastin-like Polypeptide-fusion peptide targeting capsid-tegument interface as an antiviral against cytomegalovirus infection” (Scientific Reports, 2024).
# Where no end group is shown, it is not given here.
# Legend:
# Hepatitis B and D = tested on: Hepatitis B and D; design: method as in PMID 20007265; settings: cited from earlier work
# [1] = Plasma pharmacokinetics of rhodamine-labeled constructs in mice; format: in vivo, mouse (Balb/c)
# Description: (§1) Plasma pharmacokinetics (a) were determined for 72 h after injection. In a separate cohort of mice (females, n = 4 per group), major organ biodistribution was determined 4 h after injection by ex vivo whole-organ fluorescence imaging (b and c). The standard deviations were plotted as error bars.
# (§2) Blood samples were collected from the tail vein at different time points and centrifuged to collect plasma. […] For the biodistribution, a separate cohort of mice (female, n = 4 per group) were euthanized four hours after the injection with proteins or saline control, and the brain, spleen, liver, lungs, kidneys, and heart were harvested and assessed by ex-vivo whole organ imaging using the In Vivo Imaging System (IVIS, Perkin Elmer). […] To determine pharmacokinetic parameters, plasma concentrations during the clearance phase (from the peak of the plasma concentration curve) were fit using a two-compartment pharmacokinetic model as described previously using GraphPad Prism[32].
# [2] = Organ biodistribution by ex vivo whole-organ fluorescence imaging in mice; design: species or system mouse (Balb/c); settings: rhodamine-labeled, subcutaneous, 4 h post-injection, ex vivo IVIS imaging, female mice n = 4
# Description: as §1, §2
# uninfected MEFs = experiment: Cell viability of uninfected MEFs, trypan blue exclusion; settings: 80 μM, mock-infected, 3 days
# Description: Cells were harvested at 3 dpi, and cell viability was assessed by trypan blue exclusion assay for both uninfected and infected groups. The standard error of the mean from three different experiments were plotted as error bars.
# MEFs were plated in 24-well tissue-culture plates and grown to confluency in triplicates. […] At 3 dpi, the CMC (carboxymethylcellulose) + DMEM overlay was removed. The cells were then harvested by trypsinization to determine the cell viability using trypan blue exclusion with a TC20 automated cell counter (BioRad Laboratories, Hercules, CA, USA) following the manufacturer’s protocol. […] The cells were washed twice with PBS and overlayed with CMC + DMEM and incubated for 3 days. […] The percentage of cell survival was plotted for different treatment groups, and data were analyzed by one-way ANOVA using Tukey post hoc test.
# HIV = tested on: HIV; design: method as in PMID 8312047; settings: cited from earlier work
compound,measurement,setting,value
Myrcludex B,concentrations at which efficacy was demonstrated,Hepatitis B and D,picomolar concentrations
NKLVYTGRL [P10],Area Under Curve,"[1]; 500 nmol/Kg subcutaneous, female mice n = 4 per group, plasma fluorescence over 72 h",1185 ± 383 µM·h
same,time after which clearance from plasma began,"[1]; subcutaneous, mouse plasma",2 h
same,accumulation in the kidneys,[2],much lower levels than ELP-P10
same,accumulation in the liver,[2],much lower levels than ELP-P10
"Nc1nc(O)c2ncn(COC(CO)CO)c2n1 [GCV, ganciclovir]",cell viability of uninfected MEFs,uninfected MEFs,not affected
Enfuvirtide,IC50,HIV,nanomolar range
